The supplement of paper PMC10307832

How the values were obtained:
Test in all cases: relative viability (nuclei count vs DMSO), 5 days (fraction); higher = more cells survive
[1] = tested on: HCC-44
Method in brief: (§1)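 A single step with final 0.05% Triton X-100, 1% formaldehyde and 1 ug/ml Hoechst fixed the cells and stained nuclei 5 days after treatment. Lung cancer cell lines in 1536-well plates had been treated by pin tool the day after seeding with one drug alone or a fixed anchor-drug dose plus five library-drug doses (not always all listed) in √10 steps, and nuclei were counted on 4× images. Relative viability is the ratio of nuclei in treated wells to nuclei in vehicle wells, taken as the median of duplicate plates.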

[2] = tested on: NCI-H2023
Method in brief: as §1

[3] = tested on: LC-2-ad
Method in brief: as §1

[4] = tested on: UMC-11
Method in brief: as §1

[5] = tested on: ABC-1
Method in brief: as §1

[6] = tested on: PC-14
Method in brief: as §1

[7] = tested on: SW 1573
Method in brief: as §1

[8] = tested on: COR-L23
Method in brief: as §1

[9] = tested on: NCI-H2085
Method in brief: as §1

[10] = tested on: NCI-H358
Method in brief: as §1

[11] = tested on: EPLC-272H
Method in brief: as §1

[12] = tested on: NCI-H1993
Method in brief: as §1

[13] = tested on: HOP-62
Method in brief: as §1

[14] = tested on: NCI-H1355
Method in brief: as §1

[15] = tested on: NCI-H838
Method in brief: as §1

[16] = tested on: LU99A
Method in brief: as §1

[17] = tested on: NCI-H650
Method in brief: as §1

[18] = tested on: HCC-15
Method in brief: as §1

[19] = tested on: NCI-H1915
Method in brief: as §1

[20] = tested on: HARA
Method in brief: as §1

[21] = tested on: NCI-H2347
Method in brief: as §1

[22] = tested on: NCI-H1651
Method in brief: as §1

[23] = tested on: NCI-H2126
Method in brief: as §1

## O=c1cc(N2CCOCC2)oc2c(-c3cccc4c3sc3ccccc34)cccc12 + CC(=O)c1c(C)c2cnc(Nc3ccc(N4CCNCC4)cn3)nc2n(C2CCCC2)c1=O [Palbociclib] (partner 0.5 µM)
[1]; first compound 0.01 µM
  relative viability: 1.01
[1]; first compound 0.03162 µM
  relative viability: 1.02
[1]; first compound 0.1 µM
  relative viability: 0.955
[1]; first compound 0.3162 µM
  relative viability: 0.991
[1]; first compound 1 µM
  relative viability: 1.02
[2]; first compound 0.01 µM
  relative viability: 0.436
[2]; first compound 0.03162 µM
  relative viability: 0.325
[2]; first compound 0.1 µM
  relative viability: 0.462
[2]; first compound 0.3162 µM
  relative viability: 0.337
[2]; first compound 1 µM
  relative viability: 0.346
[3]; first compound 0.01 µM
  relative viability: 0.504
[3]; first compound 0.03162 µM
  relative viability: 0.5
[3]; first compound 0.1 µM
  relative viability: 0.572
[3]; first compound 0.3162 µM
  relative viability: 0.493
[3]; first compound 1 µM
  relative viability: 0.554
[4]; first compound 0.01 µM
  relative viability: 0.309
[4]; first compound 0.03162 µM
  relative viability: 0.294
[4]; first compound 0.1 µM
  relative viability: 0.32
[4]; first compound 0.3162 µM
  relative viability: 0.347
[4]; first compound 1 µM
  relative viability: 0.324
[5]; first compound 0.01 µM
  relative viability: 0.644
[5]; first compound 0.03162 µM
  relative viability: 0.797
[5]; first compound 0.1 µM
  relative viability: 0.699
[5]; first compound 0.3162 µM
  relative viability: 0.619
[5]; first compound 1 µM
  relative viability: 0.578
[6]; first compound 0.01 µM
  relative viability: 0.436
[6]; first compound 0.03162 µM
  relative viability: 0.479
[6]; first compound 0.1 µM
  relative viability: 0.541
[6]; first compound 0.3162 µM
  relative viability: 0.581
[6]; first compound 1 µM
  relative viability: 0.596
[7]; first compound 0.01 µM
  relative viability: 0.349
[7]; first compound 0.03162 µM
  relative viability: 0.436
[7]; first compound 0.1 µM
  relative viability: 0.408
[7]; first compound 0.3162 µM
  relative viability: 0.349
[7]; first compound 1 µM
  relative viability: 0.394
[8]; first compound 0.01 µM
  relative viability: 0.289
[8]; first compound 0.03162 µM
  relative viability: 0.303
[8]; first compound 0.1 µM
  relative viability: 0.317
[8]; first compound 0.3162 µM
  relative viability: 0.301
[8]; first compound 1 µM
  relative viability: 0.316
[9]; first compound 0.01 µM
  relative viability: 0.467
[9]; first compound 0.03162 µM
  relative viability: 0.455
[9]; first compound 0.1 µM
  relative viability: 0.492
[9]; first compound 0.3162 µM
  relative viability: 0.512
[9]; first compound 1 µM
  relative viability: 0.452
[10]; first compound 0.01 µM
  relative viability: 0.163
[10]; first compound 0.03162 µM
  relative viability: 0.127
[10]; first compound 0.1 µM
  relative viability: 0.132
[10]; first compound 0.3162 µM
  relative viability: 0.133
[10]; first compound 1 µM
  relative viability: 0.126
[11]; first compound 0.01 µM
  relative viability: 0.302
[11]; first compound 0.03162 µM
  relative viability: 0.31
[11]; first compound 0.1 µM
  relative viability: 0.274
[11]; first compound 0.3162 µM
  relative viability: 0.325
[11]; first compound 1 µM
  relative viability: 0.325
[12]; first compound 0.01 µM
  relative viability: 0.738
[12]; first compound 0.03162 µM
  relative viability: 0.6
[12]; first compound 0.1 µM
  relative viability: 0.658
[12]; first compound 0.3162 µM
  relative viability: 0.64
[12]; first compound 1 µM
  relative viability: 0.545
[13]; first compound 0.01 µM
  relative viability: 0.452
[13]; first compound 0.03162 µM
  relative viability: 0.451
[13]; first compound 0.1 µM
  relative viability: 0.451
[13]; first compound 0.3162 µM
  relative viability: 0.459
[13]; first compound 1 µM
  relative viability: 0.415
[14]; first compound 0.01 µM
  relative viability: 0.424
[14]; first compound 0.03162 µM
  relative viability: 0.403
[14]; first compound 0.1 µM
  relative viability: 0.412
[14]; first compound 0.3162 µM
  relative viability: 0.39
[14]; first compound 1 µM
  relative viability: 0.392
[15]; first compound 0.01 µM
  relative viability: 0.26
[15]; first compound 0.03162 µM
  relative viability: 0.182
[15]; first compound 0.1 µM
  relative viability: 0.222
[15]; first compound 0.3162 µM
  relative viability: 0.228
[15]; first compound 1 µM
  relative viability: 0.202
[16]; first compound 0.01 µM
  relative viability: 0.393
[16]; first compound 0.03162 µM
  relative viability: 0.414
[16]; first compound 0.1 µM
  relative viability: 0.414
[16]; first compound 0.3162 µM
  relative viability: 0.379
[16]; first compound 1 µM
  relative viability: 0.488
[17]; first compound 0.01 µM
  relative viability: 0.348
[17]; first compound 0.03162 µM
  relative viability: 0.383
[17]; first compound 0.3162 µM
  relative viability: 0.356
[17]; first compound 1 µM
  relative viability: 0.347
[18]; first compound 0.01 µM
  relative viability: 0.73
[18]; first compound 0.03162 µM
  relative viability: 0.709
[18]; first compound 0.1 µM
  relative viability: 0.891
[18]; first compound 0.3162 µM
  relative viability: 0.624
[18]; first compound 1 µM
  relative viability: 0.727
[19]; first compound 0.01 µM
  relative viability: 0.529
[19]; first compound 0.03162 µM
  relative viability: 0.555
[19]; first compound 0.1 µM
  relative viability: 0.61
[19]; first compound 0.3162 µM
  relative viability: 0.461
[19]; first compound 1 µM
  relative viability: 0.526
[20]; first compound 0.01 µM
  relative viability: 0.253
[20]; first compound 0.03162 µM
  relative viability: 0.252
[20]; first compound 0.1 µM
  relative viability: 0.201
[20]; first compound 0.3162 µM
  relative viability: 0.278
[20]; first compound 1 µM
  relative viability: 0.307
[21]; first compound 0.01 µM
  relative viability: 0.365
[21]; first compound 0.03162 µM
  relative viability: 0.414
[21]; first compound 0.1 µM
  relative viability: 0.445
[21]; first compound 0.3162 µM
  relative viability: 0.424
[21]; first compound 1 µM
  relative viability: 0.39
[22]; first compound 0.01 µM
  relative viability: 0.528
[22]; first compound 0.03162 µM
  relative viability: 0.486
[22]; first compound 0.1 µM
  relative viability: 0.555
[22]; first compound 0.3162 µM
  relative viability: 0.555
[22]; first compound 1 µM
  relative viability: 0.513
[23]; first compound 0.01 µM
  relative viability: 0.349
[23]; first compound 0.03162 µM
  relative viability: 0.339
[23]; first compound 0.1 µM
  relative viability: 0.318
[23]; first compound 0.3162 µM
  relative viability: 0.331
[23]; first compound 1 µM
  relative viability: 0.345
